Structures are written as SMILES.

One may read the melting point as the temperature of the solid-liquid transition. `CCc1ccn(-c2ccc(S(C)(=O)=O)cc2)c1-c1ccc(F)cc1`: the melting point lay within 107 to 108 °C.
`CC1=CC(Cl)C(Cl)(c2cc(C)no2)C=C1C(=O)O` (stereo not given) had a melting point of 212 to 213 °C.
Then `CN(C)C(=O)c1c(-c2ccc(N(C)C)cc2)ccc2ccccc12`, with 156 to 157 °C.
Take `Cc1nc2c3c(c(C(=O)NCCCO)cc2n1C)CCC1(Cc2ccccc2C1)N3`: the melting point lay in the range of 237 to 238 °C.
As to `O=C1Cc2c(cccc2-c2ccccc2)N1`, the melting point is 192 to 194 °C.
Take `CCCCCCCCCCCCCC(O)c1nc2ncccc2o1` (stereo not given): the melting point was in the range of 52 to 54 °C.
Regarding `Cc1cc(-c2noc(C(F)F)n2)cc(C)c1OCCCc1n[nH]c(=O)s1`, the melting point fell in the range of 110 to 111 °C.
Molecule `CC12CCC3C4CCC(=O)C=C4CC(CCCCCCCCCCCO[Si](C)(C)C(C)(C)C)C3C1CCC2=O` (stereo not given) gave a melting point of 65 °C.
Then `O=S(=O)(N[C@H]1CC[C@H](CCN2CCN(c3nccc4c3CCO4)CC2)CC1)c1ccc(F)cc1`, with 221 °C; and `COc1ccc2c(c1)CCC1C2CCC2(C)C(OC(C)=O)=CCC12` (stereo not given), with 97 to 100 °C; and `COc1cc(OC)nc(NC(=O)NS(=O)(=O)c2cccc3cccnc23)n1`, with 175 to 177 °C.
The molecule `O=C(CCS)N[C@@H](Cc1ccccc1)C(=O)O` came in with a melting point of 106 to 107 °C.
Turning to `COC(=O)Cc1cc(=O)[nH]c2cc(Br)ccc12`, the melting point fell in the range of 208 to 210 °C.
Then `O=C(CN1C(=O)C2(COc3cc4c(cc32)CCO4)c2c(-c3cncnc3)cccc21)Nc1ccccc1F` (stereo not given), with 229 to 230 °C.
Under `CCn1ncc2c(NCC3CCCCC3)c3cc(S(C)=O)ccc3nc21` (stereo not given) stands 186 to 187 °C; under `Cc1cc2cn[nH]c(=O)c2n1CC(C)C`, 188 to 191 °C; under `O=C1Cc2cc(-c3ccccc3)ccc2N1`, 214 to 215 °C.
`N#Cc1ncncc1-c1ccc(CBr)cc1` gave a melting point of 114 to 116 °C.
`O=NSC1(CCO)C2CC3CC(C2)CC1C3` (stereo not given) returned a melting point of 77 to 79 °C.
Then `O=C(Cn1cccc(O)c1=O)NCCCCCCNC(=O)Cn1cccc(O)c1=O`, with 240 to 242 °C; and `Cc1ccc(S(=O)(=O)N(C)c2ccccc2[N+](=O)[O-])cc1`, with 132 °C; and `CCCCCCCCOc1ccc(-c2ncc(OC(=O)[C@H]3CCCO3)cn2)cc1`, with 90 °C.
Regarding `NS(=O)(=O)c1ccc(S[C@H]2CC[C@H](O)CC2)s1`, the melting point was in the range of 145 to 147 °C.
The molecule `Cc1ncc2n1-c1ccc(Cl)cc1C(c1ccccc1F)N=C2` (stereo not given) registered a melting point of 180 to 181 °C.
Consider `CCCCOC(=O)C1=C(C)NC(C)=C(C(=O)OC)C1c1cccc([N+](=O)[O-])c1` (stereo not given), for which the melting point was 69 to 70 °C.
With `Cc1cc(-n2cncn2)c2cccc(OCc3c(Cl)ccc(S(=O)(=O)N4CCC[C@H]4C(=O)NCC4CCN(C(=O)OC(C)(C)C)CC4)c3Cl)c2n1`, the melting point was 94 °C.
Regarding `CCCc1cc(Cl)nc(-c2cccc(Oc3ccccc3Cl)n2)n1`, the melting point stood at 96.5 °C.
Regarding `N#Cc1c(N2CCN(C(=O)c3ccco3)CC2)c2cc(F)cnc2[nH]c1=O`, the melting point is 312 °C.
Then `COC(=O)CCC(=O)c1ccc(CCNC(C)=O)cc1`, with 120 °C; and `CC(=O)c1cccc(NC(=O)c2ccc3c(c2)CC(CSCc2ccccc2)O3)c1O` (stereo not given), with 119 to 121 °C.
`Cc1ncc(CSC(=O)c2cccc(C(=O)SCc3cnc(C)c4c3COC(C)(C)O4)c2)c2c1OC(C)(C)OC2` yielded a melting point of 125 to 127 °C.
`CC(=O)N[C@H](COCc1cc(C)cc(C)c1)Cc1ccccc1`: the melting point was 76 to 78 °C.
Molecule `CCC(NS(=O)(=O)c1ccc(F)cc1)P(=O)(Oc1ccccc1)Oc1ccccc1` (stereo not given) showed a melting point of 148 to 151 °C.
The molecule `CCCCCCCC(=O)Nc1ccc(O)c(C(=O)O)c1` had a melting point of 200 to 204 °C.
For the molecule `COCC(=O)NNC(=O)N1Cc2ccccc2Oc2ccc(Cl)cc21`, the melting point is 167 to 169 °C.
